ChEMBL document CHEMBL3885881, “DrugMatrix”

Species on record: Rattus norvegicus
Experiment: DrugMatrix - Regimen: Daily Repeat
Assay type: toxicity, organism-based, Sprague-Dawley
Set-up: regimen Daily Repeat, gender Male, age 6-8 weeks
Conditions: in vivo, po, route oral GAVAGE, vehicle .5 % CMC; for BASOPHIL / EOSINOPHIL / ERYTHROCYTE COUNT / HEMATOCRIT / HEMOGLOBIN / LEUKOCYTE COUNT / LYMPHOCYTE / MEAN CORPUSCULAR HEMOGLOBIN / MEAN CORPUSCULAR HEMOGLOBIN CONCENTRATION / MEAN CORPUSCULAR VOLUME / MONOCYTE / NEUTROPHIL / PLATELET COUNT: tissue Blood; for ALANINE AMINOTRANSFERASE / ALBUMIN / ALKALINE PHOSPHATASE / ASPARTATE AMINOTRANSFERASE / BLOOD UREA NITROGEN / CHLORIDE / CHOLESTEROL / CREATINE PHOSPHOKINASE / CREATININE / GLUCOSE / PHOSPHORUS / POTASSIUM / SODIUM / TOTAL BILIRUBIN / TOTAL PROTEIN: tissue Plasma
[1] = 0 mg/kg, 72 h, dose level Control, time 3 day
[2] = 0 mg/kg, 120 h, dose level Control, time 5 day
[3] = 300 mg/kg, 72 h, dose level Low, time 3 day
[4] = 300 mg/kg, 120 h, dose level Low, time 5 day
[5] = 1500 mg/kg, 72 h, dose level High, time 3 day
[6] = 1500 mg/kg, 120 h, dose level High, time 5 day

Structure (SMILES): O=C1CCc2cc(OCCCCc3nnnn3C3CCCCC3)ccc2N1 [CILOSTAZOL]
- BASOPHIL [1]: 0.68%
- EOSINOPHIL [1]: 0.46%
- ERYTHROCYTE COUNT [1]: 7.15 x10E6/uL
- HEMATOCRIT [1]: 45.44%
- HEMOGLOBIN [1]: 14.1 G/DL
- LEUKOCYTE COUNT [1]: 9.78 x10E3/uL
- LYMPHOCYTE [1]: 84.44%
- MEAN CORPUSCULAR HEMOGLOBIN [1]: 19.72 pg
- MEAN CORPUSCULAR HEMOGLOBIN CONCENTRATION [1]: 31 G/DL
- MEAN CORPUSCULAR VOLUME [1]: 63.66 fL
- MONOCYTE [1]: 2.14%
- NEUTROPHIL [1]: 11.16%
- PLATELET COUNT [1]: 1378.2 x10E3/uL
- ALANINE AMINOTRANSFERASE [1]: 42.33 u/L
- ALBUMIN [1]: 3.8 G/DL
- ALKALINE PHOSPHATASE [1]: 388.17 u/L
- ASPARTATE AMINOTRANSFERASE [1]: 68 u/L
- BLOOD UREA NITROGEN [1]: 16.17 mg/dL
- CHLORIDE [1]: 96.67 MEQ/L
- CHOLESTEROL [1]: 71 mg/dL
- CREATINE PHOSPHOKINASE [1]: 156.17 u/L
- CREATININE [1]: 0.57 mg/dL
- GLUCOSE [1]: 193.67 mg/dL
- PHOSPHORUS [1]: 11.43 mg/dL
- POTASSIUM [1]: 7 MEQ/L
- SODIUM [1]: 140.33 MEQ/L
- TOTAL BILIRUBIN [1]: 0.48 mg/dL
- TOTAL PROTEIN [1]: 6.8 G/DL
- BASOPHIL [2]: 1.47%
- EOSINOPHIL [2]: 1%
- ERYTHROCYTE COUNT [2]: 7.12 x10E6/uL
- HEMATOCRIT [2]: 45.47%
- HEMOGLOBIN [2]: 14.1 G/DL
- LEUKOCYTE COUNT [2]: 11.38 x10E3/uL
- LYMPHOCYTE [2]: 82.57%
- MEAN CORPUSCULAR HEMOGLOBIN [2]: 19.82 pg
- MEAN CORPUSCULAR HEMOGLOBIN CONCENTRATION [2]: 31.02 G/DL
- MEAN CORPUSCULAR VOLUME [2]: 63.88 fL
- MONOCYTE [2]: 2.2%
- NEUTROPHIL [2]: 11.97%
- PLATELET COUNT [2]: 1267 x10E3/uL
- ALANINE AMINOTRANSFERASE [2]: 38 u/L
- ALBUMIN [2]: 3.72 G/DL
- ALKALINE PHOSPHATASE [2]: 391 u/L
- ASPARTATE AMINOTRANSFERASE [2]: 65.83 u/L
- BLOOD UREA NITROGEN [2]: 14.17 mg/dL
- CHLORIDE [2]: 107.67 MEQ/L
- CHOLESTEROL [2]: 61 mg/dL
- CREATINE PHOSPHOKINASE [2]: 148.33 u/L
- CREATININE [2]: 0.57 mg/dL
- GLUCOSE [2]: 177.17 mg/dL
- PHOSPHORUS [2]: 12.07 mg/dL
- POTASSIUM [2]: 7.2 MEQ/L
- SODIUM [2]: 151.5 MEQ/L
- TOTAL BILIRUBIN [2]: 0.58 mg/dL
- TOTAL PROTEIN [2]: 6.72 G/DL
- BASOPHIL [3]: 0.4%
- EOSINOPHIL [3]: 0.5%
- ERYTHROCYTE COUNT [3]: 6.67 x10E6/uL
- HEMATOCRIT [3]: 43%
- HEMOGLOBIN [3]: 13.6 G/DL
- LEUKOCYTE COUNT [3]: 12.31 x10E3/uL
- LYMPHOCYTE [3]: 81.4%
- MEAN CORPUSCULAR HEMOGLOBIN [3]: 20.4 pg
- MEAN CORPUSCULAR HEMOGLOBIN CONCENTRATION [3]: 31.6 G/DL
- MEAN CORPUSCULAR VOLUME [3]: 64.55 fL
- MONOCYTE [3]: 2.4%
- NEUTROPHIL [3]: 14%
- PLATELET COUNT [3]: 1378 x10E3/uL
- ALANINE AMINOTRANSFERASE [3]: 40.67 u/L
- ALBUMIN [3]: 3.6 G/DL
- ALKALINE PHOSPHATASE [3]: 331.33 u/L
- ASPARTATE AMINOTRANSFERASE [3]: 59 u/L
- BLOOD UREA NITROGEN [3]: 14.67 mg/dL
- CHLORIDE [3]: 96 MEQ/L
- CHOLESTEROL [3]: 75.33 mg/dL
- CREATINE PHOSPHOKINASE [3]: 120.33 u/L
- CREATININE [3]: 0.53 mg/dL
- GLUCOSE [3]: 178.33 mg/dL
- PHOSPHORUS [3]: 11.33 mg/dL
- POTASSIUM [3]: 6.4 MEQ/L
- SODIUM [3]: 141 MEQ/L
- TOTAL BILIRUBIN [3]: 0.33 mg/dL
- TOTAL PROTEIN [3]: 6.43 G/DL
- BASOPHIL [4]: 1.17%
- EOSINOPHIL [4]: 0.37%
- ERYTHROCYTE COUNT [4]: 7.17 x10E6/uL
- HEMATOCRIT [4]: 46.5%
- HEMOGLOBIN [4]: 14.43 G/DL
- LEUKOCYTE COUNT [4]: 13.79 x10E3/uL
- LYMPHOCYTE [4]: 85.57%
- MEAN CORPUSCULAR HEMOGLOBIN [4]: 20.2 pg
- MEAN CORPUSCULAR HEMOGLOBIN CONCENTRATION [4]: 31.07 G/DL
- MEAN CORPUSCULAR VOLUME [4]: 64.9 fL
- MONOCYTE [4]: 2.3%
- NEUTROPHIL [4]: 9.6%
- PLATELET COUNT [4]: 1545 x10E3/uL
- ALANINE AMINOTRANSFERASE [4]: 41 u/L
- ALBUMIN [4]: 3.77 G/DL
- ALKALINE PHOSPHATASE [4]: 365.67 u/L
- ASPARTATE AMINOTRANSFERASE [4]: 63 u/L
- BLOOD UREA NITROGEN [4]: 14.67 mg/dL
- CHLORIDE [4]: 106.67 MEQ/L
- CHOLESTEROL [4]: 67.33 mg/dL
- CREATINE PHOSPHOKINASE [4]: 135 u/L
- CREATININE [4]: 0.67 mg/dL
- GLUCOSE [4]: 167 mg/dL
- PHOSPHORUS [4]: 12.53 mg/dL
- POTASSIUM [4]: 7.53 MEQ/L
- SODIUM [4]: 151.33 MEQ/L
- TOTAL BILIRUBIN [4]: 0.43 mg/dL
- TOTAL PROTEIN [4]: 6.77 G/DL
- BASOPHIL [5]: 0.53%
- EOSINOPHIL [5]: 0.27%
- ERYTHROCYTE COUNT [5]: 6.95 x10E6/uL
- HEMATOCRIT [5]: 45.23%
- HEMOGLOBIN [5]: 14.2 G/DL
- LEUKOCYTE COUNT [5]: 13.97 x10E3/uL
- LYMPHOCYTE [5]: 82.9%
- MEAN CORPUSCULAR HEMOGLOBIN [5]: 20.43 pg
- MEAN CORPUSCULAR HEMOGLOBIN CONCENTRATION [5]: 31.4 G/DL
- MEAN CORPUSCULAR VOLUME [5]: 65.13 fL
- MONOCYTE [5]: 2.43%
- NEUTROPHIL [5]: 13.1%
- PLATELET COUNT [5]: 1348.33 x10E3/uL
- ALANINE AMINOTRANSFERASE [5]: 34.67 u/L
- ALBUMIN [5]: 3.77 G/DL
- ALKALINE PHOSPHATASE [5]: 340.33 u/L
- ASPARTATE AMINOTRANSFERASE [5]: 60.33 u/L
- BLOOD UREA NITROGEN [5]: 12 mg/dL
- CHLORIDE [5]: 95 MEQ/L
- CHOLESTEROL [5]: 65.33 mg/dL
- CREATINE PHOSPHOKINASE [5]: 141 u/L
- CREATININE [5]: 0.5 mg/dL
- GLUCOSE [5]: 178.33 mg/dL
- PHOSPHORUS [5]: 11.9 mg/dL
- POTASSIUM [5]: 6.77 MEQ/L
- SODIUM [5]: 140.33 MEQ/L
- TOTAL BILIRUBIN [5]: 0.43 mg/dL
- TOTAL PROTEIN [5]: 6.67 G/DL
- BASOPHIL [6]: 0.83%
- EOSINOPHIL [6]: 0.37%
- ERYTHROCYTE COUNT [6]: 7 x10E6/uL
- HEMATOCRIT [6]: 45.1%
- HEMOGLOBIN [6]: 13.87 G/DL
- LEUKOCYTE COUNT [6]: 10.98 x10E3/uL
- LYMPHOCYTE [6]: 80.03%
- MEAN CORPUSCULAR HEMOGLOBIN [6]: 19.8 pg
- MEAN CORPUSCULAR HEMOGLOBIN CONCENTRATION [6]: 30.67 G/DL
- MEAN CORPUSCULAR VOLUME [6]: 64.47 fL
- MONOCYTE [6]: 2.53%
- NEUTROPHIL [6]: 15.27%
- PLATELET COUNT [6]: 1161 x10E3/uL
- ALANINE AMINOTRANSFERASE [6]: 45 u/L
- ALBUMIN [6]: 3.67 G/DL
- ALKALINE PHOSPHATASE [6]: 377 u/L
- ASPARTATE AMINOTRANSFERASE [6]: 66.33 u/L
- BLOOD UREA NITROGEN [6]: 12 mg/dL
- CHLORIDE [6]: 106.67 MEQ/L
- CHOLESTEROL [6]: 66.67 mg/dL
- CREATINE PHOSPHOKINASE [6]: 130 u/L
- CREATININE [6]: 0.6 mg/dL
- GLUCOSE [6]: 184.33 mg/dL
- PHOSPHORUS [6]: 12.83 mg/dL
- POTASSIUM [6]: 7.27 MEQ/L
- SODIUM [6]: 151.33 MEQ/L
- TOTAL BILIRUBIN [6]: 0.4 mg/dL
- TOTAL PROTEIN [6]: 6.6 G/DL
